# Legend:
# [1] = Superoxide scavenging ability (hypoxanthine/xanthine oxidase, ESR); assay type: biochemical
# Protocol: In this experiment, superoxide generated by reacting hypoxanthine with xanthine oxidase was captured by 5,5-dimethyl-4-phenyl-1-pyrroline N-oxide (hereinafter referred to as “4PDMPO”) as a spin trapping agent, and SOD-like activity by the test compound was measured by ESR.
# Specifically, A 50 μl of aqueous solution of hypoxanthine (commercialized by Fuji Film Wako Pure Chemical Industries, Ltd., Tokyo, Japan) prepared to 1 mM was added to a glass test tube. […] The ESR spectrum of the reaction mixture was measured 40 seconds after the addition of xanthine oxidase, and the radical scavenging ability of the test compound was shown as its relative percentage thereof, with the case where no dye compound was added as the radical intensity of 100%. Measurements were performed in triplicate for each of the concentrations of each test compound, and the IC50 was calculated using the average value thereof and shown in Table 6. […]
# A reaction solution for measuring various radicals was placed in a flat quartz cell for ESR, and the ESR spectrum was measured by an ESR device (commercialized by JEOL Ltd., trade name “Free radical Controller JES-FR30”). […] The peak height of the ESR spectrum corresponding to each radical at this time was set as 100, and the relative intensity when the solution was added and reacted was obtained and expressed as the radical residual rate (%). […]
# [2] = Hydroxyl radical scavenging ability (Fenton reaction, ESR); assay type: biochemical; details: 4PDMPO spin trap
# Protocol: In this experiment, hydroxyl radicals generating from diethylenetriamine-N, N, N′, N″-pentaacetic acid (DTPA) by Fenton reaction were trapped with 4PDMPO and measured by ESRs.
# Specifically, each of the dye compounds dissolved in DMSO was diluted with purified water to obtain a test compound solution. To a glass test tube, 50 μl of 1 mM hydrogen peroxide solution and 50 μl of 356 mM 4PDMPO were added, followed by 50 μl of the test compound solution. Then, 50 μl of an aqueous solution containing 1 mM FeSO4 and 1 mM DTPA (commercialized by Fuji Film Wako Pure Chemical Industries, Ltd.) was added thereto, mixed with a vortex mixer for 10 seconds, and then reacted for exactly 40 seconds, and the reaction solution was used for ESR measurement. […]
# (§1) Detailed conditions of the ESR measurement are described in this section. A reaction solution for measuring various radicals was placed in a flat quartz cell for ESR, and the ESR spectrum was measured by an ESR device (commercialized by JEOL Ltd., trade name “Free radical Controller JES-FR30”). […] The peak height of the ESR spectrum corresponding to each radical at this time was set as 100, and the relative intensity when the solution was added and reacted was obtained and expressed as the radical residual rate (%). […]
# [3] = Solubility in distilled water and ethanol (absorbance method); assay type: physicochemical
# Protocol: A test sample solution, prepared by dissolving each test compound in DMSO to give a concentration of 5 mg/mL, was diluted with 70% (v/v) acetonitrile aqueous solution, and the absorption spectrum at the wavelength range of 400 nm to 900 nm is measured by a spectrophotometer (“FLEX STATION 3”, manufactured by Molecular Devices Japan, Tokyo, Japan). The maximum absorption wavelength of each test compound was determined, then the correlation equation between the absorbance and the concentration at the wavelength was calculated to prepare a calibration curve, and then the following quantitative test was carried out. […] The solubility of each dye compound was measured as follows with reference to the method described in the Japanese Pharmacopoeia. […] After 30 min, 1 mL of the mixture was sampled at 3 times from each test solution, centrifuged at 18,400×g for 5 min, 0.3 mL of the supernatant was collected and admixed with 0.7 mL of acetonitrile to make a total volume of 1.0 mL. Then, the absorbance was measured at the maximum absorption wavelength corresponding to each of the dyes described above, and the concentration of dye was calculated from the calibration curve.
# PC12-HS cells = assay: Evaluation method B: neurite-outgrowth promoting activity in the presence of NGF; assay type: cell-based, rat; details: for Neurite-outgrowth rate (%) / Action on PC12-HS neurite-outgrowth promotion (500 ng/ml): NGF 10 ng/ml; for Action on PC12-HS neurite-outgrowth promotion (500 ng/ml): 3 days, class of neurite-outgrowth rate; for neurite-outgrowth promoting activity (in words): 200 and 1,000 nM, comment on Table 2
# Excerpt: As a model of the nerve cell, the NGF (nerve growth factor) highly sensitive strain of PC12 cell derived from the rat adrenal pheochromocytoma (hereinafter referred to as “PC12-HS cell”; JCRB cell bank, National Research and Development Institute of Health and Nutrition), which has been widely used as a suitable model for research on human neurodegenerative disease, was used. As the test compound, […] of trimethine cyanine dye compounds; NK-5 (Chemical formula 2), NK-36 (Chemical formula 3), NK-44 (Chemical formula 5) and dye compounds represented by Chemical formulae 12 to 18, and NK-6 (Chemical formula 7), which is a monomethine cyanine dye, were selected. In addition, two kinds of ethylene cross-linked dyes (Chemical formulae 19 and 20), 15 kinds of monomethine cyanine dyes (Chemical formulae 21 to 35), and seven kinds of trimethine cyanine dyes (Chemical formulae 36 to 42), which were expected to have a good neurocyte growth acceleration activity and/or neurite-outgrowth promoting activity in the screening disclosed in Patent literature 6, were also re-evaluated for comparison. The Chemical formulae 12 to 42 are shown below.
# The cyanine dye compounds subjected to the test (purity 97% by mass or more, synthesized by Hayashibara Co., Ltd., Okayama, Japan) were individually dissolved in DMSO (product number “D8418”, commercialized by SIGMA Corporation) at a concentration of 5 mg/ml, and the solutions were then filtered through DMSO-resistant membrane (“Millex-LGS LLG025SS”, commercialized by Millipore Corporation) and stored at 25° C. in a dark condition. At the time of use, they were further diluted with Dulbecco's Medium (hereinafter, abbreviated as “D-MEM medium”, commercialized by Nissui Pharmaceutical Co., Ltd.) supplemented by 10% by volume of fetal bovine serum (FBS), and subjected to the test.
# As in the case of evaluation of neurocyte growth accelerating activity (Evaluation method A), 50 μl/well of each test compound solution, prepared by diluting with the culture medium to give a final concentration of 500 ng/ml, and the culture medium containing 20 ng/ml of mouse NGF (mouse derived, final concentration 10 ng/ml, commercialized by Chemicon International, Inc., CA, USA) (50 μl/well) were added to the precultured PC12-HS cells in each well, and then cultured for three days. Culture medium was removed on day 3 of culture, and cells were fixed by adding 100 μl/well of 10% by volume of glutaraldehyde and standing for 20 minutes at room temperature. As a negative control, PC12-HS cells, cultured for three days with culture medium, were fixed with glutaraldehyde similarly as above. Fixed cells were observed under a microscope to assess the neurite-outgrowth. The neurite-outgrowth rate (%) was determined by observing the cells using a microscope by adjusting the magnitude to give about 100 cells in one visual field, counting the number of cells having neurites twice or more in length of the cell body (major axis), dividing by the total number of cells in the same visual field, and multiplying by 100. Measurements were carried out at three points for each test compound. […] In this experiment, the neurite-outgrowth rate was 5% or less when NGF was added (final concentration 10 ng/ml) without the addition of the test compound.
# The method was based on Experiment 1-1, except the concentrations of the test compounds were set to three doses of 40 nM, 200 nM and 1,000 nM for evaluation method A (neurocyte growth accelerating effect), and two doses of 200 nM and 1,000 nM for evaluation method B (neurite outgrowth promoting effect). Measurements were performed in triplicate for each concentration of each test compound in both evaluation methods A and B. The result of the evaluation method A was expressed as a cell proliferation rate (%) by determined a relative percentage (%) when the value of the negative control to which the test compound was not added, was regarded as 100%. […]
# [4] = DPPH radical scavenging ability (absorbance method); assay type: biochemical
# Excerpt: 2,2-Diphenyl-1-picrylhydrazyl (hereinafter referred to as “DPPH”) is a radical with an unpaired electron and has the oxidizing ability of other substances. In addition, because it is stable and easy to handle, it is widely used as an artificial radical-like substance for measuring the antioxidant ability of antioxidants. When DPPH reacts with a substance having antioxidant ability, it loses its own oxidizing ability and its color changes from deep purple to […].
# DPPH (commercialized by Tokyo Kasei Kogyo Co., Ltd., Tokyo, Japan) was dissolved in ethanol to prepare a 167 μM DPPH ethanol solution, and 90 μl of the solution was added to each well of the 96-well microplate. A 60 μl each of the test compound serially diluted with ethanol was added to the DPPH ethanol solution, and the mixture was reacted at room temperature for 2 hours, and then the absorbance at 490 nm was measured. […] From those value, the 50% inhibitory concentration of the DPPH radical (Hereinafter, it is referred to as “IC50”) was calculated.
# [5] = Peroxyl radical scavenging ability (AAPH, ESR); assay type: biochemical; details: DMPO spin trap, AAPH 37° C.
# Protocol: Since the peroxyl radical generated by heating of 2,2′-azobis (2-aminodipropane) dihydrochloride (hereinafter referred to as “AAPH”) is a model of biologically derived radicals, in this experiment, the ability of the test compound to scavenge the peroxyl radical was measured by ESR.
# Specifically, each of the dye compounds dissolved in DMSO was diluted with 0.1 M phosphate buffer to prepare a test compound solution. […] Measurements were performed in triplicate for each of the concentrations of each test compound, and the IC50 was calculated using the mean value thereof and shown in Table 6.
# as §1
Structure (SMILES),superoxide radical scavenging ability relative to NK-4 (comparison of IC50 values) [1],"IC50 ([1]; ESR, 4PDMPO spin trap, read-out: IC50 superoxide radical)",IC50 [2],"Solubility Dictilled water ([3]; distilled water, room temperature, 30 min)",Solubility Ethanol ([3]; ethanol),Neurite-outgrowth rate (%) (PC12-HS cells; 1.000 nM),Neurite-outgrowth rate (%) (PC12-HS cells; 200 nM),Action on PC12-HS neurite-outgrowth promotion (500 ng/ml) (PC12-HS cells),neurite-outgrowth promoting activity (in words) (PC12-HS cells),"relative DPPH radical scavenging activity based on the IC50 value, relative to NK-4 [4]","IC50 ([4]; ethanol, room temperature, 2 hours, absorbance at 490 nm)",IC50 [5]
CCN1C=CC(=Cc2cc[n+](CC)c3ccccc23)c2ccccc21.[I-] [NK-6],more than twice that of NK-4,69 µM,62 µM,93 µg/mL,645 µg/mL,41.5%,32.6%,⊚ (45% or more was judged to be more potent than NK-4 (“double circle”)),stronger neurite-outgrowth promoting activity than NK-4,about 2 times,380 µM,43 µM
CCN1C=CC(=CC=Cc2cc[n+](CC)c3ccccc23)c2ccccc21.[Br-] [NK-36],–,–,–,–,–,28.7%,33.8%,"◯ (When the mean neurite-outgrowth rate was 25 to 44%, it was judged to be equivalent to the positive control NK-4 (“circle”))",almost equivalent neurite-outgrowth promoting rate to NK-4,–,–,–
CCCCN1C=CC(=CC=Cc2cc[n+](CCCC)c3ccccc23)c2ccccc21.[I-] [NK-44],–,–,–,–,–,22.9%,29.3%,"◯ (When the mean neurite-outgrowth rate was 25 to 44%, it was judged to be equivalent to the positive control NK-4 (“circle”))",almost equivalent neurite-outgrowth promoting rate to NK-4,–,–,–
